pIC50: −log10 of the molar value.
Columns and labels:
DPP1 in HL-60 cells [1] = molecular target: T1, DPP1 in HL-60 cells (Homo sapiens, UniProt P53634); test: DPP1 Cell Single-Point Percent Inhibition Testing; format: cell-based; set-up: host or cells: HL-60 cells; settings: final compound concentration 5 nM, n = 1
How it was run: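 HL-60 cells in unsupplemented RPMI preincubated 60 min at 37 °C with test article (5 nM final, 0.1% DMSO), then given cell-permeable H-Gly-Phe-AFC (100 μM final) for 30 min. Fluorescence at 400/505 nm; percent inhibition versus vehicle after subtracting cell-free background and 10 μM brensocatib non-specific signal.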

DPP1 in HL-60 cells [2] = molecular target: T1, DPP1 in HL-60 cells; test: DPP1 Cell IC50 assay; format: cell-based; set-up: host or cells: HL-60 cells; settings: 60 min pre-incubation, H-Gly-Phe-AFC substrate, average of n runs, read-out: Avg. IC50 (DPP1 Cell IC50 value ranges)
How it was run: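 HL-60 cells in PBS (5×10^5 live cells per mL) pre-incubated with compound (0.5% DMSO) 60 min at 37° C, 5% CO2, then H-Gly-Phe-AFC substrate (500 μM stock) added for 30 min. Fluorescence at 400/505 nm; % inhibition vs vehicle wells, IC50 from four-parameter logistic fit.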

T1 sequence (P53634 25-463): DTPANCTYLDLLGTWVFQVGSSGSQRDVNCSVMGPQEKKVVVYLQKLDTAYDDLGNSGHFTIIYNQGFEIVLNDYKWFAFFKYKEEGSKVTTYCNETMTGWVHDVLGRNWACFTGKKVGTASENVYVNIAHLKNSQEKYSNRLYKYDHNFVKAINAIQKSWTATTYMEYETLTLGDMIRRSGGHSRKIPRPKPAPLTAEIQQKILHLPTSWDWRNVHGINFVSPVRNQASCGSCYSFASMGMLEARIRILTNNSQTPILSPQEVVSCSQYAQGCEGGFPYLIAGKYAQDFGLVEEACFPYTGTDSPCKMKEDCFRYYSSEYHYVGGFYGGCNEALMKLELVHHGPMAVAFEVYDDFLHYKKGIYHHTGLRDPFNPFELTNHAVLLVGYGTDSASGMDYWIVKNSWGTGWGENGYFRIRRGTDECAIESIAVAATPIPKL

Row | inhibition at 0.005 µM (DPP1 in HL-60 cells [1]) | pIC50 (DPP1 in HL-60 cells [2]) | Structure (SMILES)
1 | ≤ 76.5% | < 8.60 | CN1CCCC2(C1)C(=O)N(C)c1ccc(-c3ccc(C[C@@H](C#N)NC(=O)[C@@H]4CNCCCO4)cc3)cc12 (stereo partly drawn) [Compound 18, (2S)—N-[(1S)-1-cyano-2-(4-{1,1′-dimethyl-2-oxospiro[indole-3,3′-piperidin]-5-yl}phenyl)ethyl]-1,4-oxazepane-2-carboxamide]
2 | ≤ 76.5% | < 8.60 | N#C[C@H](Cc1ccc(-c2cnc3c(n2)CCCC3)cc1)NC(=O)[C@@H]1CNCCCO1 [Compound A11, (2S)—N-[(1S)-1-cyano-2-[4-(5,6,7,8-tetrahydroquinoxalin-2-yl)phenyl]ethyl]-1,4-oxazepane-2-carboxamide]
